From patent US9453014B2, “Cyclic amide derivatives as inhibitors of 11-β-hydroxysteroid dehydrogenase and uses thereof” (CONNEXIOS LIFE SCIENCES PVT. LTD., priority 2011, dated 2016)

target: T1, human full length HSD11 β 1 (Homo sapiens, UniProt P28845); assay: In Vitro HSD11β1 Inhibition Assay; assay type: cell-based; conditions: 11βHSD1 (IC50)
T1 construct: transient expression of human full length HSD11 β 1 expression vector; host or cells: CHO cells (transient transfection)
Description: In Vitro HSD11β1 Inhibition Assay:
CHO cells were maintained in Dulbecco's modified Eagle's medium/nutrient mixture F-12 containing 5% fetal bovine serum (v/v) and 2 mM glutamine. Cells were cultured at 37° C. with 5% CO2. For transient expression of human full length HSD11 β 1 expression vector (OriGene Technologies), cells were seeded at a density of 2×10^5 cells/well in a 6-well plate. Transfection was done using Turbofectin8 reagent (OriGene Technologies), according to the protocol provided with the reagent. After 24 hours post-transfection, cells were trypsinized and pooled together before they were re-seeding to 96-well plate at a density of 40000 cells/well. 24 hours after re-seeding, cells were incubated with 200 nM cortisone+500 uM NADPH (or along with small molecule inhibitors) overnight. The enzymatic activity or inhibition of enzyme activity was measured by estimating the conversion of cortisone to cortisol by LC/MS-MS method. The IC50 in nM was calculated from an 8 point log scale of concentration versus inhibition.

T1 sequence (P28845 whole entry): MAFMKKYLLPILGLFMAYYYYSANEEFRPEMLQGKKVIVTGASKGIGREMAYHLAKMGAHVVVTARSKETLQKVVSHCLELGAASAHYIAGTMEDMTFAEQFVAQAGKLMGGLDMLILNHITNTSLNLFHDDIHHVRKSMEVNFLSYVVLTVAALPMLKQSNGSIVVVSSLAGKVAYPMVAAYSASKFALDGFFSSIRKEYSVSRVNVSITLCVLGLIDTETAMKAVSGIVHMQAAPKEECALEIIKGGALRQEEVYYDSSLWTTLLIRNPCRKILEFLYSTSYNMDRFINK

Row | Structure (SMILES) | IC50 [µM]
1 | Cc1cccc2[nH]cc(C(=O)CC(=O)N3CCCC4CCCCC43)c12 (stereo not shown) [Compound 30, 1-(4-methyl-1H-indol-3-yl)-3-(octahydroquinolin-1(2H)-yl)propane-1,3-dione] | > 0.25

same assay, conditions: CHO cells transiently expressing human HSD11β1; 200 nM cortisone+500 uM NADPH overnight; cortisone to cortisol by LC/MS-MS; read-out: 11βHSD1 (IC50)

Row | IC50 [µM] | Structure (SMILES)
2 | < 0.1 | Cc1[nH]c2ccccc2c1CCC(=O)N1CCCC2CCCCC21 (stereo not shown) [Compound 17, 3-(2-methyl-1H-indol-3-yl)-1-(octahydroquinolin-1(2H)-yl)propan-1-one]
3 | > 0.25 | O=C(CCn1ccc2ccccc21)N1CCCC2CCCCC21 (stereo not shown) [Compound 18, 3-(1H-indol-1-yl)-1-(octahydroquinolin-1(2H)-yl)propan-1-one]
4 | > 0.25 | O=C(CC(=O)N1CCCC2CCCCC21)c1c[nH]c2ccc(Cl)cc12 (stereo not shown) [Compound 19, 1-(5-chloro-1H-indol-3-yl)-3-(octahydroquinolin-1(2H)-yl)propane-1,3-dione]
5 | < 0.1 | Cc1cccc2[nH]cc(CCC(=O)N3CCCC4CCCCC43)c12 (stereo not shown) [Compound 20, 3-(4-methyl-1H-indol-3-yl)-1-(octahydroquinolin-1(2H)-yl)propan-1-one]
6 | > 0.25 | O=C(CCc1c[nH]c2ccccc12)N1CCC2CCCCC2C1 (stereo not shown) [Compound 21, 3-(1H-indol-3-yl)-1-(octahydroisoquinolin-2(1H)-yl)propan-1-one]
7 | > 0.25 | CC(CC(=O)N1CCOC2CCCCC21)c1c[nH]c2ncccc12 (stereo not shown) [Compound 22, 1-(octahydro-4H-1,4-benzoxazin-4-yl)-3-(1H-pyrrolo[2,3-b]pyridin-3-yl)butan-1-one]
8 | > 0.25 | CC(C)(C)NC(=O)C1CC2CCCCC2CN1C(=O)CCc1c[nH]c2ccccc12 (stereo not shown) [Compound 23, N-tert-butyl-2-[3-(1H-indol-3-yl)propanoyl]decahydroisoquinoline-3-carboxamide]
9 | > 0.25 | Cn1cc(CCC(=O)N2CCCC3CCCCC32)c2cc(O)ccc21 (stereo not shown) [Compound 24, 3-(5-hydroxy-1-methyl-1H-indol-3-yl)-1-(octahydroquinolin-1(2H)-yl)propan-1-one]
10 | > 0.25 | CC(Oc1c[nH]c2ccccc12)C(=O)N1CCCC2CCCCC21 (stereo not shown) [Compound 25, 2-(1H-indol-3-yloxy)-1-(octahydroquinolin-1(2H)-yl)propan-1-one]
11 | > 0.25 | O=C1CCN(C(=O)CCc2c[nH]c3ccccc23)C2CCCCC12 (stereo not shown) [Compound 26, 1-[3-(1H-indol-3-yl)propanoyl]octahydroquinolin-4(1H)-one]
12 | < 0.1 | Cc1cccc2c1c(CCC(=O)N1CCCC3CCCCC31)cn2C (stereo not shown) [Compound 27, 3-(1,4-dimethyl-1H-indol-3-yl)-1-(octahydroquinolin-1(2H)-yl)propan-1-one]
13 | 0.1 to 0.15 | Cc1cccc2c1c(CCC(=O)N1CCCC3CCCCC31)cn2C1CC1 (stereo not shown) [Compound 28, 3-(1-cyclopropyl-4-methyl-1H-indol-3-yl)-1-(octahydroquinolin-1(2H) -yl)propan-1-one]
14 | > 0.25 | N#C/C(=C\c1c[nH]c2ccccc12)C(=O)N1CCCC2CCCCC21 (stereo not shown) [Compound 31, (2E)-3-(1H-indol-3-yl)-2-(octahydroquinolin-1(2H)-ylcarbonyl)prop-2-enenitrile]
15 | > 0.25 | Cc1cccc2[nH]cc(CCC(=O)N3CCC(=O)C4CCCCC43)c12 (stereo not shown) [Compound 32, 1-[3-(4-methyl-1H-indol-3-yl)propanoyl]octahydroquinolin-4(1H)-one]
16 | > 0.25 | CCn1cc(CCC(=O)N2CCCC3CCCCC32)c2c(C)cccc21 (stereo not shown) [Compound 33, 3-(1-ethyl-4-methyl-1H-indol-3-yl)-1-(octahydroquinolin-1(2H)-yl)propan-1-one]
17 | > 0.25 | CC1(O)CCN(C(=O)CCc2c[nH]c3ccccc23)C2CCCCC21 (stereo not shown) [Compound 34, 1-(4-hydroxy-4-methyloctahydroquinolin-1(2H)-yl)-3-(1H-indol-3-yl)propan-1-one]
18 | < 0.1 | Cc1cccc2[nH]cc(CCC(=O)N3C(C)CCC4CCCCC43)c12 (stereo not shown) [Compound 35, 3-(4-methyl-1H-indol-3-yl)-1-(2-methyloctahydroquinolin-1(2H)-yl)propan-1-one]
19 | > 0.25 | CO/N=C1/CCN(C(=O)CCc2c[nH]c3ccccc23)C2CCCCC12 (stereo not shown) [Compound 36]
20 | > 0.25 | CC1CC2CCCCC2N(C(=O)CCc2c[nH]c3ccccc23)C1 (stereo not shown) [Compound 37, 3-(1H-indol-3-yl)-1-(3-methyloctahydroquinolin-1(2H)-yl)propan-1-one]
21 | 0.15 to 0.2 | CC1CCC2CCCCC2N1C(=O)CCc1c[nH]c2ccccc12 (stereo not shown) [Compound 38, 3-(1H-indol-3-yl)-1-(2-methyloctahydroquinolin-1(2H)-yl)propan-1-one]
22 | > 0.25 | O=C(CCc1c[nH]c2cc(F)ccc12)N1CCCC2CCCCC21 (stereo not shown) [Compound 39, 3-(6-fluoro-1H-indol-3-yl)-1-(octahydroquinolin-1(2H)-yl)propan-1-one]

Row | IC50 [µM] | Structure (SMILES)
23 | > 0.25 | CC1CCC2CCCCC2N1C(=O)CCc1c[nH]c2cc(F)ccc12 (stereo not shown) [Compound 40, 3-(6-fluoro-1H-indol-3-yl)-1-(2-methyloctahydroquinolin-1(2H)-yl)propan-1-one]
24 | 0.1 to 0.15 | O=C(CCc1c[nH]c2ccccc12)N1CCC2CCCCC21 (stereo not shown) [Compound 41, 3-(1H-indol-3-yl)-1-(octahydro-1H-Indol-1-yl)propan-1-one]
25 | > 0.25 | O=C(CCc1c[nH]c2ccccc12)N1CC2CCCCC2C1 (stereo not shown) [Compound 42, 3-(1H-indol-3-yl)-1-(octahydro-2H-isoindol-2-yl)propan-1-one]
26 | > 0.25 | O=C1CCN(C(=O)CCc2c[nH]c3cc(F)ccc23)C2CCCCC12 (stereo not shown) [Compound 43, 1-[3-(6-fluoro-1H-indol-3-yl)propanoyl]octahydroquinolin-4(1H)-one]
27 | < 0.1 | O=C(CCc1c[nH]c2cccc(F)c12)N1CCCC2CCCCC21 (stereo not shown) [Compound 44, 3-(4-fluoro-1H-indol-3-yl)-1-(octahydroquinolin-1(2H)-yl)propan-1-one]
28 | > 0.25 | CC1CC2CCCCC2N1C(=O)CCc1c[nH]c2ccccc12 (stereo not shown) [Compound 45]
29 | > 0.25 | O=C(O)Cn1cc(CCC(=O)N2CCCC3CCCCC32)c2ccccc21 (stereo not shown) [Compound 46, {3-[3-(octahydroquinolin-1(2H)-yl)-3-oxopropyl]-1H-indol-1-yl}acetic acid]
30 | < 0.1 | Cn1cc(CCC(=O)N2CCCC3CCCCC32)c2c(F)cccc21 (stereo not shown) [Compound 47, 3-(4-fluoro-1-methyl-1H-Indol-3-yl)-1-(octahydroquinolin-1(2H)-yl)propan-1-one]
31 | > 0.25 | O=C(CCc1c[nH]c2ccccc12)N1CCCC2=C1CCCC2 [Compound 48, 1-(3,4,5,6,7,8-hexahydroquinolin-1(2H)-yl)-3-(1H-indol-3-yl)propan-1-one]
32 | > 0.25 | COC(=O)C1CCN(C(=O)CCc2c[nH]c3ccccc23)C2CCCCC12 (stereo not shown) [Compound 49, methyl 1-[3-(1H-indol-3-yl)propanoyl]decahydroquinoline-4-carboxylate]
33 | > 0.25 | O=C(O)C1CCN(C(=O)CCc2c[nH]c3ccccc23)C2CCCCC12 (stereo not shown) [Compound 50, 1-[3-(1H-indol-3-yl)propanoyl]decahydroquinoline-4-carboxylic acid]
34 | > 0.25 | O=C(CCc1cn(S(=O)(=O)c2ccccc2)c2ccccc12)N1CCCC2CCCCC21 (stereo not shown) [Compound 51, 1-(octahydroquinolin-1(2H)-yl)-3-[1-(phenylsulfonyl)-1H-indol-3-yl]propan-1-one]
35 | > 0.25 | O=C(CCc1c[nH]c2ccccc12)N1CCCCC2CCCCC21 (stereo not shown) [Compound 54, 1-(decahydro-1H-1-benzazepin-1-yl)-3-(1H-indol-3-yl)propan-1-one]
36 | > 0.25 | O=C(CS(=O)(=O)c1c[nH]c2ccccc12)N1CCCC2CCCCC21 (stereo not shown) [Compound 57, 2-(1H-indol-3-ylsulfonyl)-1-(octahydroquinolin-1(2H)-yl)ethanone]
37 | 0.15 to 0.2 | Cn1cc(C(C)(C)CC(=O)N2CCCC3(C)CCCCC23)c2ccccc21 (stereo not shown) [Compound 59, 3-methyl-3-(1-methyl-1H-indol-3-yl)-1-(4a-methyloctahydroquinolin-1 (2H)-yl)butan-1-one]
38 | < 0.1 | Cc1cccc2c1c(CCC(=O)N1CCOC3CCCCC31)cn2C (stereo not shown) [Compound 60, 3-(1,4-dimethyl-1H-indol-3-yl)-1-(octahydro-4H-1,4-benzoxazin-4-yl)propan-1-one]
39 | > 0.25 | O=C(CCc1c[nH]c2ccccc12)N1CCO[C@@H]2CCCCC21 (stereo partly drawn) [Compound 61, 3-(1H-indol-3-yl)-1-[(trans-4a,8a)-octahydro-4H-1,4-benzoxazin-4-yl]propan-1-one]
40 | 0.15 to 0.2 | Cc1cccc2[nH]cc(CCC(=O)N3CCOC4CCCCC43)c12 (stereo not shown) [Compound 64, 3-(4-methyl-1H-indol-3-yl)-1-(octahydro-4H-1,4-benzoxazin-4-yl)propan-1-one]
41 | > 0.25 | O=C(CCc1c[nH]c2ccccc12)N1CCOC2CCCCC21 (stereo not shown) [Compound 67, 3-(1H-indol-3-yl)-1-(octahydro-4H-1,4-benzoxazin-4-yl)propan-1-one]
42 | > 0.25 | Cc1cccc2[nH]cc(CCC(=O)N3CC(C)(C)OC4CCCCC43)c12 (stereo not shown) [Compound 68, 1-(2,2-dimethyloctahydro-4H-1,4-benzoxazin-4-yl)-3-(4-methyl-1H-indol-3-yl)propan-1-one]
43 | > 0.25 | Cc1cccc2c1c(CCC(=O)N1CC(C)OC3CCCCC31)cn2C (stereo not shown) [Compound 69, 3-(1,4-dimethyl-1H-indol-3-yl)-1-(2-methyloctahydro-4H-1,4-benzoxazin-4-yl)propan-1-one]
